Experimental data taken from patent US10913972B2, “5,5-disubstituted luciferins and their use in luciferase-based assays” (Promega Corporation, priority 2016, dated 2021).
“Also recorded” adds a separate entry of the source.

Key:
UltraGlo luciferase = assay: RLU of 5,5-disubstituted luciferin analogs normalized to racemic luciferins (Table 1); assay type: biochemical; conditions: normalized to 1 mM racemic luciferins under identical conditions
Method: Further tests were conducted at various substrate concentrations in the presence of sub-saturating D-Luciferin as a means to compare the binding affinity of the substrates. Solutions of 0.005 mg/ml Click Beetle-Green luciferase (CBG) or UltraGlo luciferase were prepared in Bright-Glo™ assay buffer (Promega E263A) with 3 mM ATP. A 2 mM solution of each substrate was then prepared in water containing D-Luciferin (sub-saturating). Each substrate+D-Luciferin was two-fold serially diluted in luciferin free water. A sample of 50 μL of each substrate dilution was combined with 50 μL of the enzyme solution. Samples were incubated at room temperature for one minute, and luminescence was measured on a GLOMAX® Multi+ plate luminometer. […] (FIG. 5A-F). RLU values for certain representative compounds (normalized to racemic luciferins under identical conditions) are provided in Table 1 above. For certain representatative compounds, substrate titration tests were performed using procedures as described herein without comparison to luciferins, therefore providing RLU values not normalized to those of luciferins.
(§1) To determine if luciferin analogs with substitutions at the 5,5 position could be substrates for UltraGlo™ luciferase, tests were performed with analogs containing various di-substitutions of alkyl groups and closed ring structures in luminescence assays. A solution of 0.005 mg/ml UltraGlo™ luciferase (Promega Corp) prepared in 1×TBS+1% Prionex was combined with 0.5 mM ATP in Bright-Glo™ assay buffer (Promega E263A). All substrates were diluted separately in DMSO to 20 mM. After a 30-minute incubation at room temperature, diluted substrate was added to 1 mM final concentration in the reaction and mixed by pipetting. Reactions were further incubated at room temperature for 1 minute, and luminescence measured on a GLOMAX® Multi+ plate luminometer.

UltraGlo™ luciferase = assay: Luminescence assay of 5,5-substituted analogs as substrates for UltraGlo™ luciferase (FIG. 7); assay type: biochemical; conditions: 1 mM substrate, 0.005 mg/ml enzyme, 0.5 mM ATP, 1 minute at room temperature
Method: as §1

ULTRA-GLO™ luciferase = assay: Inhibition of luciferase activity by dehydroluciferins; assay type: biochemical; conditions: titrated from 0.25 mM in 0.25 mM racemic luciferin, 0.1 mM ATP, 1 minute
Method: Inhibition of luciferase activity by dehydroluciferins: ULTRA-GLO™ luciferase (Promega, 0.1 mg/mL)+0.1% PRIONEX® in detection reagent buffer was prepared. The solution was divided into 2 portions with 0.25 mM Racemic H-Luciferin added to one portion and 0.25 mM racemic NH2 luciferin to the other portion. H-dehydroluciferin (0.25 mM) was added to an aliquot of the racemic H-Luciferin solution, and NH2-dehydroluciferin (0.25 mM) was added to an aliquot of the racemic NH2 luciferin solution. 2× serial dilutions of each of the dehydroluciferin samples were prepared using the racemic solutions as a diluent (500 μL of dehydroluciferin solution added to 500 μL of ULTRA-GLO™+racemic luciferin). 50 μL of each titration series was then added to […] 0.1 mM ATP. The samples were incubated for 1 minute, and the luminescence was measured on GLOMAX®-Multi+ plate luminometer (n=6).

[1] = Thermal stability of luciferin stock solutions at 60° C. by RP-HPLC; conditions: stock solution pH=6.0, 7.0 mM; for Thermal stability (decomposition in solution): detergents, ULTRA-GLO luciferase 0.1 mg/mL
[2] = test system: firefly or click beetle luciferases; conditions: Branchini et al., J. Am. Chem. Soc. 2002; cited from earlier work
[3] = test system: recombinant beetle luciferases; conditions: only the D-form; Viviani et al., Biochemistry 2014; cited from earlier work

| Compound | RLU% (RLU normalized to the one generated by 1 mM racemic luciferins under identical conditions) (UltraGlo luciferase) [%] | further results |
| --- | --- | --- |
| O=C(O)C1N=C(c2nc3ccc(O)cc3s2)SC12CCCCC2 (stereo not drawn) [CS0325, 2-(6-hydroxybenzo[d]thiazol-2-yl)-1-thia-3-azaspiro[4.5]dec-2-ene-4-carboxylic acid] | 0.22 |  |
| O=C(O)C1N=C(c2nc3ccc(O)cc3s2)SC12CCCC2 (stereo not drawn) [CS0326, 2-(6-hydroxybenzo[d]thiazol-2-yl)-1-thia-3-azaspiro[4.4]non-2-ene-4-carboxylic acid] | 0.43 |  |
| O=C(O)C1N=C(c2nc3ccc(O)cc3s2)SC12CCC2 (stereo not drawn) [CS0329, 6-(6-hydroxybenzo[d]thiazol-2-yl)-5-thia-7-azaspiro[3.4]oct-6-ene-8-carboxylic acid] | 0.29 |  |
| CCC1(CC)SC(c2nc3ccc(O)cc3s2)=NC1C(=O)O (stereo not drawn) [CS0330, 5,5-diethyl-2-(6-hydroxybenzo[d]thiazol-2-yl)-4,5-dihydrothiazole-4-carboxylic acid] | 0.60 |  |
| O=C(O)C1N=C(c2nc3ccc(O)cc3s2)SC12CC2 (stereo not drawn) [CS0333, 5-(6-hydroxybenzo[d]thiazol-2-yl)-4-thia-6-azaspiro[2.4]hept-5-ene-7-carboxylic acid] | 0.27 |  |
| CCC1(CC)SC(c2nc3cc(F)c(O)cc3s2)=NC1C(=O)O (stereo not drawn) [CS0388, 5,5-diethyl-2-(5-fluoro-6-hydroxybenzo[d]thiazol-2-yl)-4,5-dihydrothiazole-4-carboxylic acid] | 0.64 | Luminescence as substrate (UltraGlo™ luciferase): measurable luminescence values |
| O=C(O)C1N=C(c2nc3cc(F)c(O)cc3s2)SC12CCCCC2 (stereo not drawn) [CS0392, 2-(5-fluoro-6-hydroxybenzo[d]thiazol-2-yl)-1-thia-3-azaspiro[4.5]dec-2-ene-4-carboxylic acid] | 0.13 | Luminescence as substrate (UltraGlo™ luciferase): measurable luminescence values |
| O=C(O)C1N=C(c2nc3ccc(O)cc3s2)SC1(Cc1ccccc1)Cc1ccccc1 (stereo not drawn) [CS0396, 5,5-dibenzyl-2-(6-hydroxybenzo[d]thiazol-2-yl)-4,5-dihydrothiazole-4-carboxylic acid] | 1.0 | Luminescence as substrate (UltraGlo™ luciferase): measurable luminescence values |
| O=C(O)C1N=C(c2nc3ccc(O)cc3s2)SC12CCCCCC2 (stereo not drawn) [CS0397, 2-(6-hydroxybenzo[d]thiazol-2-yl)-1-thia-3-azaspiro[4.6]undec-2-ene-4-carboxylic acid] | 0.13 |  |
| CC1CCC2(CC1)SC(c1nc3ccc(O)cc3s1)=NC2C(=O)O (stereo not drawn) [CS0404, 2-(6-hydroxybenzo[d]thiazol-2-yl)-8-methyl-1-thia-3-azaspiro[4.5]dec-2-ene-4-carboxylic acid] | 0.31 |  |
| CN1CCC2(CC1)SC(c1nc3ccc(O)cc3s1)=NC2C(=O)O (stereo not drawn) [CS0420, 2-(6-hydroxybenzo[d]thiazol-2-yl)-8-methyl-1-thia-3,8-diazaspiro[4.5]dec-2-ene-4-carboxylic acid] | 0.20 |  |
| CCCC1(CCC)SC(c2nc3ccc(O)cc3s2)=NC1C(=O)O (stereo not drawn) [CS0427, 2-(6-hydroxybenzo[d]thiazol-2-yl)-5,5-dipropyl-4,5-dihydrothiazole-4-carboxylic acid] | 0.16 |  |
| O=C(O)C1N=C(c2nc3ccc(O)cc3s2)SC12CCOCC2 (stereo not drawn) [CS0439, 2-(6-hydroxybenzo[d]thiazol-2-yl)-8-oxa-1-thia-3-azaspiro[4.5]dec-2-ene-4-carboxylic acid] | 0.09 |  |
| O=C(O)c1csc(-c2nc3ccc(O)cc3s2)n1 [H-dehydroluciferin] |  | Inhibition of luciferase activity (ULTRA-GLO™ luciferase): potent inhibitors |
| CC1(C)SC(c2nc3ccc(O)cc3s2)=NC1C(=O)O (stereo not drawn) [III-a, 2-(6-hydroxybenzo[d]thiazol-2-yl)-5,5-dimethyl-4,5-dihydrothiazole-4-carboxylic acid] |  | Thermal stability (decomposition in solution) [1]: virtually no decomposition; also recorded: more thermally stable than the unsubstituted luciferin; Light production via luciferase mediated processes [2]: incapable of producing light |
| CC1(C)SC(c2nc3ccc(N)cc3s2)=NC1C(=O)O (stereo not drawn) [III-b, 2-(6-aminobenzo[d]thiazol-2-yl)-5,5-dimethyl-4,5-dihydrothiazole-4-carboxylic acid] |  | Light production [3]: produce light; Thermal stability (decomposition in solution) [1]: virtually no decomposition; also recorded: more thermally stable than the unsubstituted luciferin |
| Nc1ccc2nc(-c3nc(C(=O)O)cs3)sc2c1 [NH2-dehydroluciferin] |  | Inhibition of luciferase activity (ULTRA-GLO™ luciferase): potent inhibitors |
| O=C(O)[C@H]1CSC(c2nc3ccc(O)cc3s2)=N1 [unsubstituted luciferin] |  | Thermal stability (decomposition in solution) [1]: significant decomposition; Major degradation product ([1]; with or without ULTRA-GLO luciferase): dehydroluciferin |
